Values after ≈ are worked out from the molar mass of the structure shown.
How the values were obtained:
[1] = test system: Pseudomonas aeruginosa No. 12; assay: In vivo therapeutic efficacy against dermal infections; design: species or system mice (ddY-S); conditions: NO.12, 96 h, dermal infection, female mice, po, 6 times (0, 3, 6, 24, 27, 30 hours), abscess on 4th day, probit analysis
Experimental: Female mice (ddY-S) weighing 21 to 26 g were subcutaneously infected at the dorsal skin with approximate 9×10^6 viable cells of Pseudomonas aeruginosa No. 12 in 0.2 ml physiological saline. Medication was performed 6 times; 0, 3, 6, 24, 27, and 30 hours after infection. The appearance of skin abscess at the inoculated site was examined on the 4th day after infection and mice bearing no abscess were regarded as protected from the infection. ED50 was calculated by probit analysis.

Escherichia coli P-5101 [2] = assay: In vivo therapeutic efficacy against systemic infections in mice; design: species or system mice (ddY); conditions: P5101, 168 h; systemic infection, Escherichia coli P-5101, male mice, po, twice (about 5 minutes and 6 hours after infection), 7 days, Behrens-Kaerber; read-out: median effective dose (ED50)
Experimental: (§1) Compounds 1 and A were each suspended in a 0.2% aqueous solution of sodium carboxymethyl cellulose. Each of the solutions was orally administered to mice infected with each of the test organisms under the conditions described below, and the median effective doses (ED50) obtained are shown in Table II. Male mice (ddY) weighing about 20 g (1) Escherichia coli P-5101: Intraperitoneal infection with about 9×10^6 cells per mouse suspended in trypto-soy broth with 4% mucin. Twice, about 5 minutes and 6 hours after infection. for 7 days. | The numerals in the table show ED50 (mg/kg). ED50 values were | calculated in accordance with the BehrensKaerber method (Arch. Exp. Path. | Pharm., 162, 480 (1931)). | po: oral administration.

[3] = test system: Pseudomonas aeruginosa No. 12; assay: In vivo therapeutic efficacy against pulmonary infection in mice; design: species or system mice (ddY-S); conditions: NO.12, 120 h, female mice, po, 0, 1 and 3 hours after infection, survival on 5th day, probit analysis
Experimental: (§2) Female mice (ddY-S) weighing 18 to 26 g were intranasally intected with 4 drops of a bacterial suspension* in physiological saline. Drugs suspended in 0.2% sodium carboxymethyl cellulose were orally administered 0, 1, and 3 hours after infection. Survival rates were determined on the 5th day after infection. ED50 was calculated by probit analysis.
*Pseudomonas aeruginosa No. 12--2.0×10^7 cells/mouse

Escherichia coli P-5101 [4] = assay: In vitro antibacterial activity (MIC), twofold agar-dilution method; type: cell-based; conditions: P5101; Escherichia coli P-5101, twofold agar-dilution; read-out: minimum inhibitory concentration (MIC)
Experimental: (§3) The minimum inhibitory concentrations (MIC: μg/ml) of the following compounds were measured by the twofold agar-dilution method according to the procedure described in Chemotherapy, Vol. 29, No. 1, page 76 (1981).

[5] = test system: Proteus mirabilis IFO 3849-4; assay: as above; type: cell-based; conditions: IFO3849; Proteus mirabilis IFO 3849-4, twofold agar-dilution; read-out: minimum inhibitory concentration (MIC)
Experimental: as §3

[6] = test system: Pseudomonas aeruginosa No. 12; assay: as above; type: cell-based; conditions: Pseudomonas aeruginosa No. 12, twofold agar-dilution; read-out: minimum inhibitory concentration (MIC)
Experimental: as §3

[7] = test system: Escherichia coli NIHJ JC-2; assay: as above; type: cell-based; conditions: NIHJJC2; Escherichia coli NIHJ JC-2, twofold agar-dilution; read-out: minimum inhibitory concentration (MIC)
Experimental: as §3

[8] = test system: Serratia marcescens IFO 3736; assay: as above; type: cell-based; conditions: IFO3736; Serratia marcescens IFO 3736, twofold agar-dilution; read-out: minimum inhibitory concentration (MIC)
Experimental: as §3

[9] = test system: Klebsiella pneumoniae No. 13; assay: as above; type: cell-based; conditions: Klebsiella pneumoniae No. 13, twofold agar-dilution; read-out: minimum inhibitory concentration (MIC)
Experimental: as §3

[10] = test system: Salmonella enteritidis No. 1891; assay: as above; type: cell-based; conditions: Salmonella enterica; Salmonella enteritidis No. 1891, twofold agar-dilution; read-out: minimum inhibitory concentration (MIC)
Experimental: as §3

[11] = test system: Salmonella typhimurium S-9; assay: as above; type: cell-based; conditions: Salmonella enterica; Salmonella typhimurium S-9, twofold agar-dilution; read-out: minimum inhibitory concentration (MIC)
Experimental: as §3

Enterobacter cloacae 963 = assay: as above; type: cell-based; conditions: Enterobacter cloacae 963, twofold agar-dilution; read-out: minimum inhibitory concentration (MIC)
Experimental: as §3

Proteus morganii Kono = assay: as above; type: cell-based; conditions: Morganella morganii, read-out: minimum inhibitory concentration (MIC)
Experimental: as §3

[12] = test system: Pseudomonas aeruginosa Tsuchiijima; assay: as above; type: cell-based; conditions: read-out: minimum inhibitory concentration (MIC)
Experimental: as §3

Shigella flexneri 2a = assay: as above; type: cell-based; conditions: read-out: minimum inhibitory concentration (MIC)
Experimental: as §3

[13] = test system: Pseudomonas aeruginosa No. 12; assay: In vivo therapeutic efficacy against systemic infections in mice; design: species or system mice (ddY); conditions: 168 h; systemic infection, Pseudomonas aeruginosa No. 12, male mice, po, twice (about 5 minutes and 6 hours after infection), 7 days, Behrens-Kaerber; read-out: median effective dose (ED50)
Experimental: as §1, with “(2) Pseudomonas aeruginosa No. 12:” for “(1) Escherichia coli P-5101:”, “4×10^3” for “9×10^6”

[14] = test system: Pseudomonas aeruginosa No. 12; assay: In vivo therapeutic efficacy against ascending kidney infection; design: species or system mice (Std:ddY-S); conditions: NO.12, 120 h, female mice, po, twice a day for 3 days, kidneys on 5th day, probit analysis
Experimental: Compounds 1 and A were tested by the following procedure for therapeutic efficacy against the ascending kidney infection with Pseudomonas aeruginosa No. 12 in mice. Female mice (Std:ddY-S) weighing 22 to 30 g were anesthetized by intravenous injection of sodium pentobarbital at a dose of 50 mg/kg. Through a small suprapubic incision, the urinary bladder was exposed and then infected by injecting 0.1 ml of a 1:10,000 dilution of Pseudomonas aeruginosa No. 12 cultured for 20 hours in trypto-soy broth, using a 0.25 ml syringe with a 0.25 mm needle. The mice were restrained from drinking water for a period from 1 day before to 1 day after the infection. The compound 1 or A was administered orally twice a day for 3 days starting on the day of infection. On the 5th day after infection, the kidneys were harvested for the detection of the bacteria, transversely bisected and stamped on King A agar, which were incubated at 37° C. overnight. No bacterial finding in the kidneys was regarded as protected from the ascending kidney infection. ED50 values were calculated by probit analysis.

[15] = Acute oral toxicity in mice; conditions: mouse, in vivo, male mice, deaths after 7 days, Behrens-Kaerber, read-out: median lethal dose (LD50)
Experimental: A solution containing compound 1 in various concentrations was orally given to male mice (ddY-S) at a volume of 0.1 ml per 10 g of body weight. The number of dead mice was counted after 7 days, and the value of median lethal dose (LD50; mg/kg) was calculated in accordance with the Behrens-Kaerber method.

Gram-negative bacteria = assay: In vivo antibacterial efficacy (Tables II to V), overall comparison; design: species or system mice; conditions: compound 1 compared with compound A
Text: Compounds 1 and A were each suspended in a 0.2% aqueous solution of sodium carboxymethyl cellulose. Each of the solutions was orally administered to mice infected with each of the test organisms under the conditions described below, and the median effective doses (ED50) obtained are shown in Table II.
as §2
Female mice (Std:ddY-S) weighing 22 to 30 g were anesthetized by intravenous injection of sodium pentobarbital at a dose of 50 mg/kg. Through a small suprapubic incision, the urinary bladder was exposed and then infected by injecting 0.1 ml of a 1:10,000 dilution of Pseudomonas aeruginosa No. 12 cultured for 20 hours in trypto-soy broth, using a 0.25 ml syringe with a 0.25 mm needle. […] ED50 values were calculated by probit analysis.
Female mice (ddY-S) weighing 21 to 26 g were subcutaneously infected at the dorsal skin with approximate 9×10^6 viable cells of Pseudomonas aeruginosa No. 12 in 0.2 ml physiological saline. […] ED50 was calculated by probit analysis.

| SMILES | ED50 [1] | ED50 (Escherichia coli P-5101 [2]) | ED50 [3] | MIC (Escherichia coli P-5101 [4]) | MIC [5] | MIC [6] | MIC [7] | MIC [8] | MIC [9] | MIC [10] | MIC [11] | MIC (Enterobacter cloacae 963) | MIC (Proteus morganii Kono) | MIC [12] | MIC (Shigella flexneri 2a) | ED50 [13] | ED50 [14] | LD50 at 168 h [15] | in vivo antibacterial efficacy against Gram-negative bacteria (Gram-negative bacteria) |
| --- | --- | --- | --- | --- | --- | --- | --- | --- | --- | --- | --- | --- | --- | --- | --- | --- | --- | --- | --- |
| CCn1cc(C(=O)O)c(=O)c2cc(F)c(N3CCC(N)C3)nc21 (stereo not drawn) [A, 7-(3-Amino-1-pyrrolidinyl)-1-ethyl-6-fluoro-1,4-dihydro-4-oxo-1,8-naphthyridine-3-carboxylic acid, reference compound] | 11.7 mg/kg | 1.6 mg/kg | 19.7 mg/kg | 0.05 µg/mL (≈ 0.156 µM) | 0.39 µg/mL (≈ 1.22 µM) | 0.39 µg/mL (≈ 1.22 µM) | 0.1 µg/mL (≈ 0.312 µM) | 0.2 µg/mL (≈ 0.624 µM) | 0.2 µg/mL (≈ 0.624 µM) | 0.05 µg/mL (≈ 0.156 µM) | 0.1 µg/mL (≈ 0.312 µM) | 0.2 µg/mL (≈ 0.624 µM) | 0.2 µg/mL (≈ 0.624 µM) | 0.39 µg/mL (≈ 1.22 µM) | 0.1 µg/mL (≈ 0.312 µM) | 6.7 mg/kg | 3 mg/kg | – | – |
| C=Cn1cc(C(=O)O)c(=O)c2cc(F)c(N3CCC(N)C3)nc21 (stereo not drawn) [Compound 1, 7-(3-Amino-1-pyrrolidinyl)-6-fluoro-1,4-dihydro-4-oxo-1-vinyl-1,8-naphthyridine-3-carboxylic acid] | 2.4 mg/kg | 0.8 mg/kg | 6.3 mg/kg | 0.025 µg/mL (≈ 0.0785 µM) | 0.2 µg/mL (≈ 0.628 µM) | 0.2 µg/mL (≈ 0.628 µM) | 0.025 µg/mL (≈ 0.0785 µM) | 0.2 µg/mL (≈ 0.628 µM) | 0.1 µg/mL (≈ 0.314 µM) | 0.025 µg/mL (≈ 0.0785 µM) | 0.05 µg/mL (≈ 0.157 µM) | 0.05 µg/mL (≈ 0.157 µM) | 0.05 µg/mL (≈ 0.157 µM) | 0.2 µg/mL (≈ 0.628 µM) | 0.025 µg/mL (≈ 0.0785 µM) | 1.8 mg/kg | 0.5 mg/kg | > 4000 mg/kg | much better in vivo antibacterial efficacy against Gram-negative bacteria than the compound A |

Reference: US4382937A, “Naphthyridine derivatives and their use as anti-bacterials” (Dainippon Pharmaceutical Co., Ltd., priority 1981, dated 1983)
